Experimental data: patent US11040981B2, “Pyrrolotriazine compounds and methods of inhibiting TAM kinases” (Syros Pharmaceuticals, Inc., priority 2017, dated 2021)

Columns and labels:
AXL = molecular target: T1, AXL (Homo sapiens, UniProt P30530); assay: TR-FRET kinase activity assay, AXL; format: biochemical; conditions: ATP at Km, 60 minutes
T1 sequence (P30530 26-894): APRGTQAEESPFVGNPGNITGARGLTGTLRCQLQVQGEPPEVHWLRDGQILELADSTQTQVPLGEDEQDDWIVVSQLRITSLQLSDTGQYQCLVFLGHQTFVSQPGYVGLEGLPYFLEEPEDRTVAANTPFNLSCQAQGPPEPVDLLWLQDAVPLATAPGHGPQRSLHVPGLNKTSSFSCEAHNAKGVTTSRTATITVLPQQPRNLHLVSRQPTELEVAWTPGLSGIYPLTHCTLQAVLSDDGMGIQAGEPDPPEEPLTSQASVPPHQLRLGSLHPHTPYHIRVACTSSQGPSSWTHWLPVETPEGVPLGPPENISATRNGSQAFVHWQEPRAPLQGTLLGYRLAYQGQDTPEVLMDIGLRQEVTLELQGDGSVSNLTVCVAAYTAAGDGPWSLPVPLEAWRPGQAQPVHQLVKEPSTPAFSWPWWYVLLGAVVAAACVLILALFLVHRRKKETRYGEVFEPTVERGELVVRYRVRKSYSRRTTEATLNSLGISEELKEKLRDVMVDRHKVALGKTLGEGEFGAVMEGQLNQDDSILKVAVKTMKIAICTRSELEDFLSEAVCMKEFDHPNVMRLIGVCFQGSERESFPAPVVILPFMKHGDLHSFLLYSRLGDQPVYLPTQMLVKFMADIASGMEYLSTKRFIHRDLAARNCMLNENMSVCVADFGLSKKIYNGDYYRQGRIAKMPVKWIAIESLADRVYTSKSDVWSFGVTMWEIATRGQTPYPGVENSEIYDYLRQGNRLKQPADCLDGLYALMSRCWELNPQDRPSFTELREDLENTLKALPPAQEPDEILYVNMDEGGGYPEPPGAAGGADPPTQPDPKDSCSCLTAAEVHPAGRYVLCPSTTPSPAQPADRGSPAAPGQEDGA
Outline: (§1)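 Compounds were tested against each kinase with ATP set at its own Km and a labelled tyrosine peptide substrate. Following one hour at room temperature in buffer containing 10 mM MgCl2 and 1 mM DTT, phosphorylated product was detected by Europium antibody TR-FRET after EDTA quench, and IC50 values were calculated.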

MERTK = molecular target: T2, MERTK (Homo sapiens, UniProt Q12866); assay: TR-FRET kinase activity assay, MERTK; format: biochemical; conditions: for IC50: TR-FRET activity assay, ATP at Km, 60 minutes, read-out: Mer IC50; for FLT3/Mer ratio (FLT3 IC50/Mer IC50): ratio of Mer to FLT3: FLT3 IC50/Mer IC50
T2 sequence (Q12866 21-999): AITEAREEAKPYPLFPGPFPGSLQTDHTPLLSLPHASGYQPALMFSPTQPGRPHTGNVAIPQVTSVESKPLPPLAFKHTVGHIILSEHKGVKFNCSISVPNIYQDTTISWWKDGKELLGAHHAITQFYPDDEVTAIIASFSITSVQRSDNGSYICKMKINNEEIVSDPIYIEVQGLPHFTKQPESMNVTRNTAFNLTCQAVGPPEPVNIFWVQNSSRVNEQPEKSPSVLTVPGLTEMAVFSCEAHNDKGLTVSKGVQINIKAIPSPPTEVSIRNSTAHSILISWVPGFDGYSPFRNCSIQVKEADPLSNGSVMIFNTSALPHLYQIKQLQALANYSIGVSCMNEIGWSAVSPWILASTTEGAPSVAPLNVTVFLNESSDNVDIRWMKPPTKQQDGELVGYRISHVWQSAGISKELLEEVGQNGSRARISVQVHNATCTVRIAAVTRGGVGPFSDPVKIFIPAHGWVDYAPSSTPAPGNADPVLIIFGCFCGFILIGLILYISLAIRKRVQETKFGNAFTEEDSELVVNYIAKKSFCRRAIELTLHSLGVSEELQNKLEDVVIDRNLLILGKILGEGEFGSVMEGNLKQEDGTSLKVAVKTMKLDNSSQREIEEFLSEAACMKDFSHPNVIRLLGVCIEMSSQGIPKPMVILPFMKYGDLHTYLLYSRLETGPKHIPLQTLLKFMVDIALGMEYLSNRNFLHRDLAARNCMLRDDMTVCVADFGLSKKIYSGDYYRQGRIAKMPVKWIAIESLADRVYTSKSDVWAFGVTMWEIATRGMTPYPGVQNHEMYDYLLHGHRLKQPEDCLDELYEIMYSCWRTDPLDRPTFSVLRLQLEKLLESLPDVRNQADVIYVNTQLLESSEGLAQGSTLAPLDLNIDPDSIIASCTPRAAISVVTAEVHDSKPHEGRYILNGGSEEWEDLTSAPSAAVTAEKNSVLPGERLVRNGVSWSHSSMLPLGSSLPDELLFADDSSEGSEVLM
Outline: as §1

Row | Compound | IC50 (AXL) [nM] | IC50 (MERTK) [nM] | FLT3/Mer ratio (FLT3 IC50/Mer IC50) (MERTK)
1 | CCCCC[C@H](C)Nc1ncc2c(-c3ccc(S(=O)(=O)N4CCOCC4)cc3)cc([C@H]3CC[C@@H](O)CC3)n2n1 [Compound 103, (1R,4s)-4-(2-((S)-heptan-2-ylamino)-5-(4-(morpholinosulfonyl)phenyl)pyrrolo[2,1-f][1,2,4]triazin-7-yl)cyclohexanol] | 100 to 1000 | ≤ 100 | ++ (“++” represents a ratio of between 10 and 100)
2 | Cc1cc(-c2cc(C3CCC(O)CC3)n3nc(NC(C)CC4CC4)ncc23)ccn1 (stereo not drawn) [Compound 190] | ≤ 100 | ≤ 100 | +++ (“+++” represents a ratio of >100)
3 | COCC(C)Nc1ncc2c(C3CC4CCC(C3)N4C)cc(C3CCC(O)CC3)n2n1 (stereo not drawn) [Compound 191] | 100 to 1000 | ≤ 100 | +++ (“+++” represents a ratio of >100)
4 | COCC(C)Nc1ncc2c(N3CCOCC3=O)cc(C3CCC(O)CC3)n2n1 (stereo not drawn) [Compound 192] | 1000 to 10000 | 100 to 1000 | ++ (“++” represents a ratio of between 10 and 100)
5 | COC[C@H](C)Nc1ncc2c(-c3cn(C)cn3)cc([C@H]3CC[C@H](O)CC3)n2n1 [Compound 186] | 100 to 1000 | ≤ 100 | ++ (“++” represents a ratio of between 10 and 100)
6 | COCC(C)Nc1ncc2c(-c3ccc(C4(N5CCN(C)CC5)CC4)cc3)cc(C3CCC(O)CC3)n2n1 (stereo not drawn) [Compound 185] | ≤ 100 | ≤ 100 | ++ (“++” represents a ratio of between 10 and 100)
7 | COC[C@H](C)Nc1ncc2c(-c3ccc(C(=O)N4CCOCC4)cc3)cc([C@H]3CC[C@H](O)CC3)n2n1 [Compound 187, (4-(7-((trans)-4-hydroxycyclohexyl)-2-(((S)-1-methoxypropan-2-yl)amino)pyrrolo[2,1-f][1,2,4]triazin-5-yl)phenyl)(morpholino)methanone] | ≤ 100 | ≤ 100 | +++ (“+++” represents a ratio of >100)
8 | C[C@@H](COC(F)F)Nc1ncc2c(-c3ccc(CN4CCOCC4)cc3)cc([C@H]3CC[C@H](O)CC3)n2n1 [Compound 188] | ≤ 100 | ≤ 100 | +++ (“+++” represents a ratio of >100)
9 | CC(CC1CC1)Nc1ncc2c(-c3ccc(CN4CCOCC4)cc3)cc(C3CCC(O)CC3)n2n1 (stereo not drawn) [Compound 189] | ≤ 100 | ≤ 100 | ++ (“++” represents a ratio of between 10 and 100)
